Laboratory results from patent publication US20260297060A1, “COMPOUNDS FOR THE DEGRADATION OF MUTANT BRAF” (C4 THERAPEUTICS, INC., priority 2023, published 2026).

System: A375 human melanoma xenografts
Assay: In vivo therapeutic efficacy in A375 human melanoma xenografts (tumor volume, T/C, TGI), Example 14
Design: species or system human tumor in female BALB/c nude mice
Settings: for T/C / TGI: PG-D21
Procedure: Agents were tested in the A375 human melanoma xenografts. Compound 26 and Compound 141 were administered to BALB/c nude mice bearing A375 tumors from PG-DO and dosed via PO twice a day (BID) or third a day (TIP) or dosed P daily (QD) from PG-D. Dabrafenib was administered to BALB/c nude mice bearing A375 tumors from PG-D1 and dosed via P daily (QD). Compound 26 was dosed at 1.5 mg/kg (QD), 2 mg/kg (TID), 3 mg/kg (BID), 6 mg/kg (QD) and 10 mg/kg (BID) for 21 days. Compound 141 was dosed at 0.75 mg/kg (BID), 1 mg/kg (TID), 1.5 mg/kg (BID), 3 mg/kg (QD) and 5 mg/kg (BID) for 21 days. Dabrafenib was dosed at 100 mg/kg for 21 days. This study was non-GLP.
One hundred and thirty-eight female BALB/c nude Mus Musculus mice procured from Shanghai Lingchang Biological Science and Technology Co., LTD between the ages of six to eight weeks and with body weight between eighteen and twenty-two grams were used for the study. A spare mouse was also procured.
The A375 tumor cells were maintained in vitro in DMEM medium supplemented with 10% fetal bovine serum and 1% Penicillin-Streptomycin at 37° C. in an atmosphere of 5% CO2 in air. The tumor cells were routinely sub-cultured twice weekly. The cells growing in an exponential growth phase were harvested and counted for tumor inoculation.
Each mouse was inoculated subcutaneously at the right flank with A375 cells (5×10^6) in 0.2 mL of PBS supplemented with Matrigel (PBS: Matrigel=1:1) for tumor development. Animals were grouped for efficacy study on day 15 after tumor inoculation when the average tumor volume reached 220 mm^3. The test articles administration and the animal numbers in each group are shown in the above experimental Table 75.
At the time of routine monitoring, the animals were checked daily for any effects of tumor growth and treatments on normal behavior such as mobility, food and water consumption (by looking only), body weight gain/loss (body weights were measured twice weekly), eye/hair matting and any other abnormal effect as stated in the protocol. Death and observed clinical signs were recorded on the basis of the numbers of animals within each subset.
Prior to the onset of drug treatment, mice were measured for tumor size in two dimensions using a caliper, and the tumor volume (mm^3) was calculated using formula V=0.5 a×b^2 where a and b are the long and short diameters of the tumor in mm, respectively. Mice were randomized into different treatment groups based on the tumor volume.
The major endpoint was to see if the tumor growth could be delayed or mice could be cured. The tumor size was then used for calculations of T/C value. The T/C value (in percent) is an indication of antitumor effectiveness; T and C are the mean volumes of the treated and control groups, respectively on specified day.
TGI was calculated for each group using the formula: TGI (%)=[1−(Ti−T0)/(Ci−C0)]×100; Ti is the average tumor volume of a treatment group on a given day, T0 is the average tumor volume of the treatment group on the day of treatment start, Ci is the average tumor volume of the vehicle control group on the same day with Ti, and C0 is the average tumor volume of the vehicle group on the day of treatment start.
A one-way ANOVA followed by Dunnett's multiple comparison test was performed to compare tumor volume among vehicle group (Group 1) and treatment groups (Group 2-Group 12). All data were analyzed using GraphPad Prism, ns indicates p>0.05, * indicates p<0.05, ** indicates p<0.01, *** indicates p<0.001 and **** indicates p<0.0001.
Tumor growth inhibition of Compound 26, Compound 141 and dabrafenib in the treatment of female BALB/c nude mice bearing A375 xenografts was calculated based on tumor volume measured on […]. TGI and T/C were calculated respectively and the data are detailed in Table 82.

[1] = Compound 141, 1.5 mg/kg p.o. BID × 21 days

## CCN(C)S(=O)(=O)Nc1ccc(F)c(Oc2ccc3ncn(C4CC5(CCN(C6CC7(C6)CN(c6cc8c(cc6F)c(N6CCC(=O)NC6=O)nn8C)C7)CC5)C4)c(=O)c3c2)c1C#N (stereo not drawn) [Compound 141, 6-[2-cyano-3-[[ethyl(methyl)sulfamoyl]amino]-6-fluoro-phenoxy]-3-[7-[2-[3-(2,4-dioxohexahydropyrimidin-1-yl)-5-fluoro-1-methyl-indazol-6-yl]-2-azaspiro[3.3]heptan-6-yl]-7-azaspiro[3.5]nonan-2-yl]-4-oxo-quinazoline]
1.5 mg/kg p.o. BID x 21 days, day 35 (dosing-free regrowth), mean ± SEM
  Tumor volume: 1374 ± 116 mm^3
1.5 mg/kg p.o. BID x 21 days, day 39 (dosing-free regrowth), mean ± SEM
  Tumor volume: 1709 ± 117 mm^3
1.5 mg/kg p.o. BID x 21 days, day 42 (dosing-free regrowth), mean ± SEM
  Tumor volume: 2051 ± 177 mm^3
1.5 mg/kg p.o. BID x 21 days, day 46 (dosing-free regrowth), mean ± SEM
  Tumor volume: 2593 ± 258 mm^3
1.5 mg/kg p.o. BID x 21 days, day 49 (dosing-free regrowth), mean ± SEM
  Tumor volume: 2727 ± 382 mm^3
1.5 mg/kg p.o. BID x 21 days, day 53 (dosing-free regrowth), mean ± SEM
  Tumor volume: 3079 ± 78 mm^3
3 mg/kg p.o. QD x 21 days, day 0, mean ± SEM
  Tumor volume: 220 ± 15 mm^3
3 mg/kg p.o. QD x 21 days, day 4, mean ± SEM
  Tumor volume: 253 ± 15 mm^3
3 mg/kg p.o. QD x 21 days, day 7, mean ± SEM
  Tumor volume: 214 ± 17 mm^3
3 mg/kg p.o. QD x 21 days, day 11, mean ± SEM
  Tumor volume: 169 ± 15 mm^3
3 mg/kg p.o. QD x 21 days, day 14, mean ± SEM
  Tumor volume: 144 ± 16 mm^3
3 mg/kg p.o. QD x 21 days, day 18, mean ± SEM
  Tumor volume: 172 ± 19 mm^3
3 mg/kg p.o. QD x 21 days, day 21, mean ± SEM
  Tumor volume: 208 ± 30 mm^3
3 mg/kg p.o. QD x 21 days, day 25 (dosing-free regrowth), mean ± SEM
  Tumor volume: 486 ± 63 mm^3
3 mg/kg p.o. QD x 21 days, day 28 (dosing-free regrowth), mean ± SEM
  Tumor volume: 773 ± 63 mm^3
3 mg/kg p.o. QD x 21 days, day 32 (dosing-free regrowth), mean ± SEM
  Tumor volume: 985 ± 85 mm^3
3 mg/kg p.o. QD x 21 days, day 35 (dosing-free regrowth), mean ± SEM
  Tumor volume: 1339 ± 71 mm^3
3 mg/kg p.o. QD x 21 days, day 39 (dosing-free regrowth), mean ± SEM
  Tumor volume: 1690 ± 103 mm^3
3 mg/kg p.o. QD x 21 days, day 42 (dosing-free regrowth), mean ± SEM
  Tumor volume: 2099 ± 177 mm^3
3 mg/kg p.o. QD x 21 days, day 46 (dosing-free regrowth), mean ± SEM
  Tumor volume: 2737 ± 176 mm^3
3 mg/kg p.o. QD x 21 days, day 49 (dosing-free regrowth), mean ± SEM
  Tumor volume: 3078 ± 168 mm^3
3 mg/kg p.o. QD x 21 days, day 53 (dosing-free regrowth)
  Tumor volume: 3659 mm^3
3 mg/kg p.o. QD × 21 days
  Tumor Size on PG-D21 (Mean ± SEM): 208 ± 30 mm^3
  T/C: 11.0%
  TGI: 100.8%
5 mg/kg p.o. BID x 21 days, day 0, mean ± SEM
  Tumor volume: 220 ± 15 mm^3
5 mg/kg p.o. BID x 21 days, day 4, mean ± SEM
  Tumor volume: 166 ± 11 mm^3
5 mg/kg p.o. BID x 21 days, day 7, mean ± SEM
  Tumor volume: 100 ± 7 mm^3
5 mg/kg p.o. BID x 21 days, day 11, mean ± SEM
  Tumor volume: 60 ± 4 mm^3
5 mg/kg p.o. BID x 21 days, day 14, mean ± SEM
  Tumor volume: 38 ± 2 mm^3
5 mg/kg p.o. BID x 21 days, day 18, mean ± SEM
  Tumor volume: 27 ± 3 mm^3
5 mg/kg p.o. BID x 21 days, day 21, mean ± SEM
  Tumor volume: 23 ± 3 mm^3
5 mg/kg p.o. BID x 21 days, day 25 (dosing-free regrowth), mean ± SEM
  Tumor volume: 31 ± 9 mm^3
5 mg/kg p.o. BID x 21 days, day 28 (dosing-free regrowth), mean ± SEM
  Tumor volume: 56 ± 24 mm^3
5 mg/kg p.o. BID x 21 days, day 32 (dosing-free regrowth), mean ± SEM
  Tumor volume: 109 ± 40 mm^3
5 mg/kg p.o. BID x 21 days, day 35 (dosing-free regrowth), mean ± SEM
  Tumor volume: 190 ± 67 mm^3
5 mg/kg p.o. BID x 21 days, day 39 (dosing-free regrowth), mean ± SEM
  Tumor volume: 345 ± 111 mm^3
5 mg/kg p.o. BID x 21 days, day 42 (dosing-free regrowth), mean ± SEM
  Tumor volume: 484 ± 147 mm^3
5 mg/kg p.o. BID x 21 days, day 46 (dosing-free regrowth), mean ± SEM
  Tumor volume: 732 ± 181 mm^3
5 mg/kg p.o. BID x 21 days, day 49 (dosing-free regrowth), mean ± SEM
  Tumor volume: 1015 ± 308 mm^3
5 mg/kg p.o. BID x 21 days, day 53 (dosing-free regrowth), mean ± SEM
  Tumor volume: 1470 ± 351 mm^3
5 mg/kg p.o. BID x 21 days, day 56 (dosing-free regrowth), mean ± SEM
  Tumor volume: 1433 ± 181 mm^3
5 mg/kg p.o. BID × 21 days
  Tumor Size on PG-D21 (Mean ± SEM): 23 ± 3 mm^3
  T/C: 1.2%
  TGI: 111.8%
[1]
  Tumor Size on PG-D21 (Mean ± SEM): 208 ± 21 mm^3
  T/C: 11.1%
  TGI: 100.7%
